The target of this data set is CYP2C9 (Homo sapiens, UniProt P11712). Nature of the data set: Inhibition Assay: Inhibition assay using P450 CYP enzymes.

The values that follow come from ChEMBL document CHEMBL3638998, “17Beta-hydroxysteroid dehydrogenase type 1 inhibitors for the treatment of hormone-related diseases” (2013).

The term IC50 denotes the concentration needed to halve the response being measured. The low end stands for inhibition by little substance, the high end for a need for much substance.

Chain of CYP2C9 (P11712 whole entry): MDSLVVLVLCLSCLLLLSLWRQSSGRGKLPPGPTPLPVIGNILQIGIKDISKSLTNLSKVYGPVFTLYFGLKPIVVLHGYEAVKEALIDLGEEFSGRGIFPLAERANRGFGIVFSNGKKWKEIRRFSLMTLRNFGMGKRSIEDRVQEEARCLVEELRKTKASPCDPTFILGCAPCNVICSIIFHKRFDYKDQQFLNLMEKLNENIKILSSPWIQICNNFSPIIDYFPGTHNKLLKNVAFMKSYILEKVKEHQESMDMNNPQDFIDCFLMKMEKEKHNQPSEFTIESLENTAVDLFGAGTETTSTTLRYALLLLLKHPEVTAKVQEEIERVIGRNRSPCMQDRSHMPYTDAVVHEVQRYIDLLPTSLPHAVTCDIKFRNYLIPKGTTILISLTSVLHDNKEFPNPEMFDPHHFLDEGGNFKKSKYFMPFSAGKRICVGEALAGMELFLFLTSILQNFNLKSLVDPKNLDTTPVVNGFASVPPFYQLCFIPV

Compound `CNC(=O)/C=C/c1cc(OC)cc(-c2ccc3cc(OC)ccc3c2)c1` gave a half-maximal inhibitory concentration (IC50) of 30 nM. In other words, the double-digit nanomolar range.
